Test system: pseudotyped SARS-CoV-2 (D614G Spike)
Assay type: cell-based

O=C(OCc1cc(=O)oc2cc(O)c(O)cc12)c1nn(-c2ccccc2)c(=O)c2ccccc12 [compound 958]
pseudotyped SARS-CoV-2 infection (D614G Spike): prevent pseudotyped SARS-CoV-2 infection

Source: patent publication US20250295657A1, “Methods and Compositions for Treatment of Inflammation and Inflammatory Conditions” (University of Pittsburgh - Of the Commonwealth System of …, priority 2022, published 2025)
